Experimental data: patent publication US6822146B2, “Sulfonylurea-tolerant sunflower line M7” (priority 2000, dated 2004)
Like-named read-outs stand apart in the source and are kept apart here.

What was measured:
[1] = tested on: M5M7; test: Test B greenhouse phytotoxicity, M5M7; format: in vivo, sunflower; details: in vivo
Experimental: (§1) A greenhouse experiment was conducted to evaluate the spectrum of tolerance of three homozygous resistant mutants to various herbicides inhibiting acetolactate synthase (ALS) as their mode of action. The inbred lines tested were the 5th generation self-pollinated maintainers, M5M7, M5M11 and M5M12, as well as the 4th generation male sterile back-crosses BC4-M5M7, BC4-M5M11 and BC4-M5M12. Treatments of formulated herbicides were applied post-emergence at the 4-leaf stage. Application rates of the test herbicides were chosen to coincide with the rates commonly used in the crops for which they are registered. The application rate of imazethapyr was chosen to match the rate recommended to control parasitic weeds in sunflowers by L. García-Torres et al., Weed Technology 1995, 9, 819-824. Wild type H89 inbred sunflower was not included in this test, because the many of the tested herbicides are known to be efficacious in controlling volunteer sunflower as a weed. Treatments were replicated twice. […] A rating of 0% phytotoxicity means no crop injury.

[2] = tested on: 'M11'; test: Tolerance of M11 to rimsulfuron; details: in vivo
[3] = tested on: BC4-M5M12; test: Test B greenhouse phytotoxicity, BC4-M5M12; format: in vivo, sunflower; details: in vivo
Experimental: as §1

[4] = tested on: Homozygous resistant inbred lines, BC3-M4M12 (I), BC3-M4M11 (J) and BC3-M4M7 (K); test: Test A summary, homozygous resistant inbred lines; details: in vivo
Experimental: In a small field trial, the sunflower varieties described in Table 4 were sprayed post-emergence with a variety of sulfonylurea herbicide treatments.
Broadcast post-emergence applications of formulated sulfonylurea herbicides were performed at the 6-leaf development stage using four randomly distributed replications. Application rates were chosen to match the usual use rates of these herbicides in the crops they are registered in Europe. All herbicides except for metsulfuron-methyl were sprayed in combination with Citowet® non-ionic ethoxylated alcohol at 0.25% volume of formulated product per volume of water applied per hectare.
The evaluation of the maximum (i.e. peak) injury to sunflower varieties by sulfonylurea herbicides was measured by visual ratings, which are listed in Table 5. A rating of 0% phytotoxicity means no crop injury. […] A rating of 100% means the complete destruction of all plants.

[5] = tested on: acetolactate synthase (ALS) from M2E24; test: ALS activity remaining, M2E24 extract; format: biochemical, sunflower; details: mutant line selected with rimsulfuron, in the presence of rimsulfuron
[6] = tested on: homozygous progeny of the three mutant sources; format: in vivo, sunflower; details: Test B application rates, post-emergence
Experimental: as §1

[7] = tested on: M5M11; test: Test B greenhouse phytotoxicity, M5M11; format: in vivo, sunflower; details: in vivo
Experimental: as §1

[8] = tested on: BC4-M5M11; test: Test B greenhouse phytotoxicity, BC4-M5M11; format: in vivo, sunflower; details: in vivo
Experimental: as §1

[9] = tested on: H89A × M4M7; format: in vivo, sunflower; details: variety H
Source text: (§2) To generate the hybrids C, D and E, the fourth generation self-pollinated maintainer mutant lines M4M12, M4M11 and M4M7 were chemically sterilized by applying at the bud “star” flower stage a small amount of gibberellic acid solution to sterilize the pollen according to the general method described in Sunflower Science Technology, J. F. Carter ed. (Number 19 in the series “Agronomy”) pp. 339-386. This treatment enables maintainer plants to behave as CMS inbred lines and allows the production of heterozygous resistant hybrids, with the herbicide resistant source coming from the female side. Such crosses allowed evaluating the sexual effect of the mutation source when introduced on the female side of a cross as described in crosses C, D and E versus the male side of a cross as described in crosses F, G and H. Labels I, J and K identify third generation CMS mutant lines crossed with fourth generation maintainer lines to maintain the highly heritable mutant trait in a male sterile homozygous resistant environment. One skilled in sunflower breeding art understands the meaning of such crosses.
(§3) A rating of 0% phytotoxicity means no crop injury.

[10] = tested on: Hybrid control: H89A × RHA274; format: in vivo, sunflower; details: variety A
Source text: as §2, §3

[11] = tested on: Inbred line control: H89A; format: in vivo, sunflower; details: variety B
Source text: as §2, §3

[12] = tested on: H89A × M4M11; format: in vivo, sunflower; details: variety G
Source text: as §2, §3

[13] = tested on: H89A × M4M12; format: in vivo, sunflower; details: variety F
Source text: as §2, §3

[14] = tested on: BC4-M5M7; test: Test B greenhouse phytotoxicity, BC4-M5M7; format: in vivo, sunflower; details: in vivo
Experimental: as §1

[15] = tested on: M5M12; test: Test B greenhouse phytotoxicity, M5M12; format: in vivo, sunflower; details: in vivo
Experimental: as §1

[16] = tested on: H89A × RHA274 (sulfonylurea-susceptible hybrid); test: Test G control of volunteer sunflower, H89A × RHA274; format: in vivo; details: rated 4 weeks after application, scale 0-100
[17] = tested on: mutants originating from M11 and M12; details: tribenuron-methyl up to 60 g a.i./ha; others at Test G rates
Source text: This test involved sulfonylurea-resistant sunflower progeny BC2-M3M11 and BC2-M3M12, derived from M11 and M12, respectively. Also, a sulfonylurea-susceptible hybrid, H89A×RHA274, was included for comparison. Plants were sprayed with formulated herbicides at the 4-leaf stage. The efficacy of the treatments on the sunflowers was visually rated 4 weeks after application, using a scale where 0 means no control of the sunflowers, 85 means sufficient efficacy level to stop plants from flowering and propagating, and 100 means a complete destruction of the mutants.
Weed control in sugar beet requires 2-3 herbicide applications per season to efficiently control weeds in this slow growing crop.

[18] = tested on: BC2-M3M12; test: Test G control of volunteer sunflower, BC2-M3M12; format: in vivo; details: rated 4 weeks after application, scale 0-100
[19] = tested on: ALS enzymes of the mutant lines selected with thifensulfuron-methyl; test: ALS activity of mutant lines relative to wild-type H89B; format: biochemical, sunflower; details: in the presence of thifensulfuron-methyl
[20] = tested on: BC2-M3M11; test: Test G control of volunteer sunflower, BC2-M3M11; format: in vivo; details: rated 4 weeks after application, scale 0-100

With `CCS(=O)(=O)c1cccnc1S(=O)(=O)NC(=O)Nc1nc(OC)cc(OC)n1` [Rimsulfuron, rimsulfuron] the “Maximum Phytotoxicity” value [1] was 52.5%, the “tolerance of M11” value [2] was “not tolerant” and the “Maximum Phytotoxicity” value [3] was 65%. The “tolerance of homozygous resistant inbred lines I, J, K” value [4] was “as susceptible as the standards”, the “ALS activity retained relative to wild-type ALS from H89B” value [5] was 4-6 times and the “tolerance of the mutants” value [6] was “somewhat sensitive”. For the same molecule, the “Maximum Phytotoxicity” value [7] was 65%, the “Maximum Phytotoxicity” value [8] was 47.5% and the “Maximum Phytotoxicity” value ([9]; 15 g a.i./ha post-emergence) was 96%. For the same molecule, the “Maximum Phytotoxicity” value ([9]; 30 g a.i./ha post-emergence) was 100%, the “Maximum Phytotoxicity” value ([10]; 15 g a.i./ha post-emergence) was 100% and the “Maximum Phytotoxicity” value ([10]; 30 g a.i./ha post-emergence) was 100%. The “Maximum Phytotoxicity” value ([11]; 15 g a.i./ha post-emergence) was 100%, the “Maximum Phytotoxicity” value ([11]; 30 g a.i./ha post-emergence) was 100% and the “Maximum Phytotoxicity” value ([12]; 15 g a.i./ha post-emergence) was 98%. The “Maximum Phytotoxicity” value ([12]; 30 g a.i./ha post-emergence) was 100%, the “Maximum Phytotoxicity” value ([13]; 15 g a.i./ha post-emergence) was 98% and the “Maximum Phytotoxicity” value ([13]; 30 g a.i./ha post-emergence) was 100%. For the same molecule, the “Maximum Phytotoxicity” value [14] was 45% and the “Maximum Phytotoxicity” value [15] was 55%.

`COC(=O)c1sccc1S(=O)(=O)NC(=O)Nc1nc(C)nc(OC)n1` [Thifensulfuron-methyl, thifensulfuron-methyl] was tested, and the “Efficacy on H89A × RHA274” value ([16]; 10 g a.i./ha, 4-leaf stage) was 100, the “Efficacy on H89A × RHA274” value ([16]; 20 g a.i./ha) was 100 and the “Efficacy on H89A × RHA274” value ([16]; 40 g a.i./ha) was 100. The “Efficacy on H89A × RHA274” value ([16]; 60 g a.i./ha) was 100, the “resistance/tolerance of the mutants” value [17] was “to a lesser extent than with tribenuron-methyl” and the “Efficacy on BC2-M3M12” value ([18]; 10 g a.i./ha) was 10. For the same molecule, the “Efficacy on BC2-M3M12” value ([18]; 20 g a.i./ha) was 16, the “Efficacy on BC2-M3M12” value ([18]; 40 g a.i./ha) was 32 and the “Efficacy on BC2-M3M12” value ([18]; 60 g a.i./ha) was 58. For the same molecule, the “ALS activity retained relative to wild-type ALS from H89B” value [19] was 2-6 times, the “tolerance of homozygous resistant inbred lines I, J, K” value [4] was “less susceptible than the standards” and the “tolerance of homozygous resistant lines compared with heterozygous hybrids” value [4] was “the homozygous resistant lines were more tolerant”. The “Efficacy on BC2-M3M11” value ([20]; 10 g a.i./ha) was 2, the “Efficacy on BC2-M3M11” value ([20]; 20 g a.i./ha) was 17 and the “Efficacy on BC2-M3M11” value ([20]; 40 g a.i./ha) was 50. The “Efficacy on BC2-M3M11” value ([20]; 60 g a.i./ha) was 74, the “Maximum Phytotoxicity” value ([9]; 35 g a.i./ha post-emergence) was 80% and the “Maximum Phytotoxicity” value ([9]; 70 g a.i./ha post-emergence) was 90%. The “Maximum Phytotoxicity” value ([10]; 35 g a.i./ha post-emergence) was 100%, the “Maximum Phytotoxicity” value ([10]; 70 g a.i./ha post-emergence) was 99% and the “Maximum Phytotoxicity” value ([11]; 35 g a.i./ha post-emergence) was 100%. For the same molecule, the “Maximum Phytotoxicity” value ([11]; 70 g a.i./ha post-emergence) was 100%, the “Maximum Phytotoxicity” value ([12]; 35 g a.i./ha post-emergence) was 81% and the “Maximum Phytotoxicity” value ([12]; 70 g a.i./ha post-emergence) was 90%. For the same molecule, the “Maximum Phytotoxicity” value ([13]; 35 g a.i./ha post-emergence) was 78% and the “Maximum Phytotoxicity” value ([13]; 70 g a.i./ha post-emergence) was 89%.
